Experimental data: patent publication US9738605B2, “Hybrid compounds of curcumin and melatonin as neuroprotectants for neurodegenerative disorders” (VIRGINIA COMMONWEALTH UNIVERSITY, priority 2013, dated 2017)
“Also recorded” adds a separate entry of the source. Where two headings read alike, the source gives them in different places.

Legend:
[1] = system: amyloid-β oligomers (AβOs) in MC65 cells; test: Western blot (6E10) of AβOs production in MC65 cells; assay type: cell-based; settings: MC65 cells after removal of TC, 6E10 antibody
Description: MC65 cells (4×10^5 cells/mL) were treated with indicated compounds for 30 h and then were lysed by sonication in a Tricine buffer solution and boiled for 5 min. Protein samples were collected from the supernatant after centrifugation of the samples at 12,800×g for 5 min, and then quantified using the Bradford method. Equal amounts of protein (20.0 μg) were separated by SDS-PAGE on a gel (Bio-Rad) and transferred onto a PVDF membrane (Bio-Rad). The blots were blocked with 5% milk in TBS-Tween 20 (0.1%) solution at room temperature for 1 h and then probed with the 6E10 antibody overnight at 4° C. The blots were washed twice in TB S-Tween 20 for 15 min, and then incubated with a 1:1000 dilution of horseradish peroxidase-conjugated secondary antibody in a 5% milk/PBS-Tween 20 solution at room temperature for 1 h. After washing twice in TBS-Tween 20 for 15 min, the proteins were visualized by a Western Blot Chemiluminescence Reagent (Thermo Fischer Scientific, Waltham, Mass.). The blots were also probed with antibodies against α-tubulin to ensure equal loading of proteins.

[2] = target: T1, Aβ42 (Homo sapiens, UniProt P05067); test: AFM analysis of Aβ42 fibril and oligomer formation; assay type: biochemical; settings: 1:1 ratio with Aβ42, 24 h
T1 construct: purchased American Peptide, Inc. (Sunnyvale, Calif.)
T1 sequence (P05067 672-713 limits assumed): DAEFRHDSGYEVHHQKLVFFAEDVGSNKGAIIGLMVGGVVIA
Description: Aβ42 oligomers and fibrils were prepared based on reported procedures.^43 Indicated compounds were incubated with Aβ42 at a 1:1 ratio for both conditions for 24 h. Samples were loaded on mica, washed extensively with water, and dried overnight at room temperature before AFM analysis. The morphology of the Aβ42 aggregates was assessed using an atomic force microscope (Dimension Icon, Bruker) operating in tapping mode in air. The scan rate was varied between 1 Hz and 0.5 Hz depending on the tracking quality. The silicon tips (Bruker mpp2100-100) have a sharpness of less than 5 nm and a force constant between 3 and 5 N/m along with a resonant frequency rated between […]. All images were taken with 512 points per line, with a 1:1 ratio. Images were processed using Nanoscope analysis software version 1.20 and Image-J (from the National Institutes of Health).

[3] = system: MC65 cells; test: Rotenone protection assay in MC65 cells; assay type: cell-based; settings: up to 1 μM, rotenone 10 μM, 48 h
Description: The medium was removed and compounds were added at the indicated concentrations in fresh growth medium, and the cells were incubated for another 2 h. Rotenone was then added at a final concentration of 10 μM, and the plates were then incubated for 48 h. Cell viability was assessed by MTT assay.

[4] = In vivo BBB penetration experiment, LC-MS/MS of plasma and brain; design: species or system CD-1 male mice
Description: Briefly, ten week old CD-1 male mice were purchased from Harlan Laboratories (Frederich, Md.). Compound 9 was diluted to a concentration of 15 mg/mL in a solution with 2% DMSO and 10% Cremophor in PBS, and was administered via oral gavage at a final dosage of 50 mg/kg. Two groups of mice (n=6/group) were used to determine the plasma and brain concentrations of the compound at various time-points. […] Afterwards, the right atrium was removed to allow exsanguination, and the left ventricular apex was cannulated with a 24 G needle and perfused with 30 mL of warm (37° C.) heparinized normal saline solution to enable perfusion of all the organs and complete blood washout. The perfused brains were then collected, rapidly washed in normal saline, blot-dried, and frozen in liquid nitrogen. Brain samples were then analyzed by the LC-MS/MS.
For brain samples, half a brain was weighed and diluted with 1.0 mL of acetonitrile and then mixed well. For plasma samples, 0.01 mL of plasma was diluted with 0.99 mL of acetonitrile and then mixed well. After mixing, samples were centrifuged at 15,000 rpm and the supernatant was transferred to a new tube and evaporated to dryness using spin vacuum. The samples were then reconstituted with an 80:20 solution of 1% acetic acid in acetonitrile: 1% acetic acid in water, and a volume of 0.025 mL was then injected into the LC-MS/MS. The LC/MS/MS method employed positive electrospray ionization (ESI) with a selected reaction monitoring (SRM) mode. Compound 9 was monitored using the following SRM transitions: 381→174, 130, and 159. Chromatographic separation was achieved under gradient conditions using a Waters Acquity® UPLC, with a reversed phase column (Gemini 5u C18 110 Å, 100 mm×2.0 mm; 5 um, Phenomenex Inc., Torrance, Calif.) with a mobile phase composition of 1% acetic acid in water (mobile phase A) and 1% acetic acid in acetonitrile (mobile phase B). The initial gradient consisted of 30% B for 1 min, 30% to 95% B from 1 to 3 min, hold for 1 min at 95% B, and then equilibrate at 30% B for 2.5 min. The total run time was 6.5 min. Results were processed using Analyst 1.5.2 software. Absolute recovery, precision and accuracy, and matrix effects experiments produced an efficient method to continue sample analysis. Calibration curves were made with freshly prepared samples and calculated using peak area versus concentration with a linear or quadratic regression. Accuracy fell in the range of 85% to 115%.
To accurately quantify the amount of 7 that is delivered into brain tissue and rule out the possibility of biased interpretation from vascular trapping, we perfused the mice to wash out the vascular blood completely prior to collecting brain tissues. After oral administration, plasma samples were collected at 0.25, 0.5, 1, and 24 hours, and brain samples were collected at 1 and 24 hours.

Q: With `COc1ccc2[nH]cc(CCNC(=O)CC(=O)CCc3ccc(O)cc3)c2c1` [Compound 7, 5-(4-hydroxy-phenyl)-3-oxo-pentanoic acid [2-(5-methoxy-1H-indol-3-yl)-ethyl]-amide] as the compound, how does the “effect on the production of AβOs (tetramers, pentamers, heptamers)” value [1] read?
A: moderate inhibitory effects; also recorded: dose-dependently suppressed

Q: What about the “inhibition of fibrillization and oligomerization of Aβ42 (AFM)” value [2] of the same compound?
A: no inhibition

Q: What about the “protection from rotenone-induced cytotoxicity” value [3] of the same compound?
A: did not show protection

Q: What about the concentration at 1 h ([4]; male, CD-1, mouse, brain, po, 50 mg/kg, perfused mice, n = 6, 1 h, read-out: Brain concentration, 1 h) of the same compound?
A: 555 ± 188 nM

Q: And the concentration at 24 h ([4]; male, CD-1, mouse, brain, po, 50 mg/kg, perfused mice, n = 6, 24 h, read-out: Brain concentration, 24 h)?
A: 47.4 ± 11.2 nM

Q: What about the concentration at 15 min ([4]; male, CD-1, mouse, plasma, po, 50 mg/kg, mice, n = 6, 15 min) of the same compound?
A: 773 ± 310 nM

Q: And the concentration at 30 min ([4]; male, CD-1, mouse, plasma, po, 50 mg/kg, mice, n = 6, 30 min)?
A: 795 ± 301 nM

Q: And the concentration at 1 h ([4]; male, CD-1, mouse, plasma, po, 50 mg/kg, mice, n = 6, 1 h, read-out: Plasma concentration, 1 h)?
A: 883 ± 350 nM

Q: And the concentration at 24 h ([4]; male, CD-1, mouse, plasma, po, 50 mg/kg, mice, n = 6, 24 h, read-out: Plasma concentration, 24 h)?
A: 30.5 ± 12 nM

Q: And the “BBB penetration after oral administration” value ([4]; oral 50 mg/kg, mice)?
A: confirmed to cross the blood-brain barrier; also recorded: confirming its BBB permeability

Q: What about the “Plasma concentration, 15 min” value ([4]; oral 50 mg/kg, mice, n = 6, 15 min) of the same compound?
A: 773.80 ± 309.86 nM

Q: What about the “Plasma concentration, 1 h” value ([4]; oral 50 mg/kg, mice, n = 6, 1 h) of the same compound?
A: 883.12 ± 350.36 nM

Q: And the “Plasma concentration, 24 h” value ([4]; oral 50 mg/kg, mice, n = 6, 24 h)?
A: 30.53 ± 11.96 nM

Q: And the “Brain concentration, 1 h” value ([4]; oral 50 mg/kg, perfused mice, n = 6, 1 h)?
A: 555.40 ± 188.44 nM

Q: And the “Brain concentration, 24 h” value ([4]; oral 50 mg/kg, perfused mice, n = 6, 24 h)?
A: 47.41 ± 11.19 nM
